Reference: the NIST ThermoML archive (doi:10.1021/je060339m)
± gives the expanded uncertainty stated by the source.

Conditions: Liquid

CCCCCOC(C)=O [pentyl ethanoate]
mass density (343.15 K, 25000 kPa): 852.1 ± 6.3 kg/m3
mass density (343.15 K, 30000 kPa): 857.3 ± 6.9 kg/m3
mass density (343.15 K, 35000 kPa): 862.7 ± 7.5 kg/m3
mass density (348.15 K, 100 kPa): 823.2 ± 3.3 kg/m3
mass density (348.15 K, 1000 kPa): 824.6 ± 3.4 kg/m3
mass density (348.15 K, 2000 kPa): 825.7 ± 3.5 kg/m3
mass density (348.15 K, 2700 kPa): 826.5 ± 3.6 kg/m3
mass density (348.15 K, 3000 kPa): 826.9 ± 3.7 kg/m3
mass density (348.15 K, 5000 kPa): 828.8 ± 3.9 kg/m3
mass density (348.15 K, 10000 kPa): 834 ± 4.5 kg/m3
mass density (348.15 K, 15000 kPa): 838.9 ± 5.1 kg/m3
mass density (348.15 K, 20000 kPa): 843.5 ± 5.7 kg/m3
mass density (348.15 K, 25000 kPa): 847.9 ± 6.3 kg/m3
mass density (348.15 K, 30000 kPa): 853.3 ± 6.9 kg/m3
mass density (348.15 K, 35000 kPa): 858.8 ± 7.5 kg/m3
mass density (353.15 K, 100 kPa): 818.7 ± 3.3 kg/m3
mass density (353.15 K, 1000 kPa): 819.9 ± 3.4 kg/m3
mass density (353.15 K, 2000 kPa): 821.1 ± 3.5 kg/m3
mass density (353.15 K, 2700 kPa): 821.9 ± 3.6 kg/m3
mass density (353.15 K, 3000 kPa): 822.3 ± 3.7 kg/m3
mass density (353.15 K, 5000 kPa): 824.4 ± 3.9 kg/m3
mass density (353.15 K, 10000 kPa): 829.8 ± 4.5 kg/m3
mass density (353.15 K, 15000 kPa): 835 ± 5.1 kg/m3
mass density (353.15 K, 20000 kPa): 839.7 ± 5.7 kg/m3
mass density (353.15 K, 25000 kPa): 844.3 ± 6.3 kg/m3
mass density (353.15 K, 30000 kPa): 849.8 ± 6.9 kg/m3
mass density (353.15 K, 35000 kPa): 855.4 ± 7.5 kg/m3
mass density (358.15 K, 100 kPa): 811.3 ± 3.3 kg/m3
mass density (358.15 K, 1000 kPa): 812.2 ± 3.4 kg/m3
mass density (358.15 K, 2000 kPa): 813.4 ± 3.5 kg/m3
mass density (358.15 K, 2700 kPa): 814.1 ± 3.6 kg/m3
mass density (358.15 K, 3000 kPa): 814.5 ± 3.7 kg/m3
mass density (358.15 K, 5000 kPa): 816.9 ± 3.9 kg/m3
mass density (358.15 K, 10000 kPa): 822.5 ± 4.5 kg/m3
mass density (358.15 K, 15000 kPa): 827.7 ± 5.1 kg/m3
mass density (358.15 K, 20000 kPa): 832.5 ± 5.7 kg/m3
mass density (358.15 K, 25000 kPa): 838 ± 6.3 kg/m3
mass density (358.15 K, 30000 kPa): 843.9 ± 6.9 kg/m3
mass density (358.15 K, 35000 kPa): 849.7 ± 7.5 kg/m3
mass density (363.15 K, 100 kPa): 806.3 ± 3.3 kg/m3
mass density (363.15 K, 1000 kPa): 807.4 ± 3.4 kg/m3
mass density (363.15 K, 2000 kPa): 808.7 ± 3.5 kg/m3
mass density (363.15 K, 2700 kPa): 809.6 ± 3.6 kg/m3
mass density (363.15 K, 3000 kPa): 809.9 ± 3.7 kg/m3
mass density (363.15 K, 5000 kPa): 812.4 ± 3.9 kg/m3
mass density (363.15 K, 10000 kPa): 818.1 ± 4.5 kg/m3
mass density (363.15 K, 15000 kPa): 823.4 ± 5.1 kg/m3
mass density (363.15 K, 20000 kPa): 828.3 ± 5.7 kg/m3
mass density (363.15 K, 25000 kPa): 833.9 ± 6.3 kg/m3
mass density (363.15 K, 30000 kPa): 839.9 ± 6.9 kg/m3
mass density (363.15 K, 35000 kPa): 845.6 ± 7.5 kg/m3
mass density (368.15 K, 100 kPa): 801.2 ± 3.3 kg/m3
mass density (368.15 K, 1000 kPa): 802.3 ± 3.4 kg/m3
mass density (368.15 K, 2000 kPa): 803.7 ± 3.6 kg/m3
mass density (368.15 K, 2700 kPa): 804.6 ± 3.6 kg/m3
mass density (368.15 K, 3000 kPa): 805 ± 3.7 kg/m3
mass density (368.15 K, 5000 kPa): 807.5 ± 3.9 kg/m3
mass density (368.15 K, 10000 kPa): 813.4 ± 4.5 kg/m3
mass density (368.15 K, 15000 kPa): 818.8 ± 5.1 kg/m3
mass density (368.15 K, 20000 kPa): 824 ± 5.7 kg/m3
mass density (368.15 K, 25000 kPa): 829.8 ± 6.3 kg/m3
mass density (368.15 K, 30000 kPa): 835.9 ± 6.9 kg/m3
mass density (368.15 K, 35000 kPa): 841.4 ± 7.5 kg/m3
mass density (373.15 K, 100 kPa): 795.5 ± 3.3 kg/m3
mass density (373.15 K, 1000 kPa): 796.4 ± 3.4 kg/m3
mass density (373.15 K, 2000 kPa): 797.7 ± 3.6 kg/m3
mass density (373.15 K, 2700 kPa): 799.5 ± 3.6 kg/m3
mass density (373.15 K, 3000 kPa): 799 ± 3.7 kg/m3
mass density (373.15 K, 5000 kPa): 802.5 ± 3.9 kg/m3
mass density (373.15 K, 10000 kPa): 808.2 ± 4.5 kg/m3
mass density (373.15 K, 15000 kPa): 813.9 ± 5.1 kg/m3
mass density (373.15 K, 20000 kPa): 819.8 ± 5.7 kg/m3
mass density (373.15 K, 25000 kPa): 826.3 ± 6.3 kg/m3
mass density (373.15 K, 30000 kPa): 831.3 ± 6.9 kg/m3
mass density (378.15 K, 100 kPa): 790.4 ± 3.3 kg/m3
mass density (378.15 K, 1000 kPa): 791.6 ± 3.4 kg/m3
mass density (378.15 K, 2000 kPa): 793.1 ± 3.6 kg/m3
mass density (378.15 K, 2700 kPa): 794 ± 3.7 kg/m3
mass density (378.15 K, 3000 kPa): 794.4 ± 3.7 kg/m3
mass density (378.15 K, 5000 kPa): 797.1 ± 3.9 kg/m3
mass density (378.15 K, 10000 kPa): 803.5 ± 4.5 kg/m3
mass density (383.15 K, 100 kPa): 786.8 ± 3.4 kg/m3
mass density (383.15 K, 1000 kPa): 788.1 ± 3.5 kg/m3
mass density (383.15 K, 2000 kPa): 789.6 ± 3.6 kg/m3
mass density (383.15 K, 2700 kPa): 790.7 ± 3.7 kg/m3
mass density (383.15 K, 3000 kPa): 791.1 ± 3.7 kg/m3
mass density (383.15 K, 5000 kPa): 793.9 ± 3.9 kg/m3
mass density (383.15 K, 10000 kPa): 800.5 ± 4.5 kg/m3
mass density (383.15 K, 15000 kPa): 806.6 ± 5.1 kg/m3
mass density (383.15 K, 20000 kPa): 811.7 ± 5.8 kg/m3
mass density (383.15 K, 25000 kPa): 816.5 ± 6.4 kg/m3
mass density (383.15 K, 30000 kPa): 824 ± 7 kg/m3
mass density (383.15 K, 35000 kPa): 830 ± 7.6 kg/m3
mass density (388.15 K, 100 kPa): 781.9 ± 3.4 kg/m3
mass density (388.15 K, 1000 kPa): 783.4 ± 3.5 kg/m3
mass density (388.15 K, 2000 kPa): 785 ± 3.6 kg/m3
mass density (388.15 K, 2700 kPa): 786 ± 3.7 kg/m3
mass density (388.15 K, 3000 kPa): 786.5 ± 3.7 kg/m3
mass density (388.15 K, 5000 kPa): 789.4 ± 4 kg/m3
mass density (388.15 K, 10000 kPa): 796.3 ± 4.6 kg/m3
mass density (388.15 K, 15000 kPa): 802.5 ± 5.2 kg/m3
mass density (388.15 K, 20000 kPa): 808.1 ± 5.8 kg/m3
mass density (388.15 K, 25000 kPa): 813.7 ± 6.4 kg/m3
mass density (388.15 K, 30000 kPa): 819.7 ± 7 kg/m3
mass density (388.15 K, 35000 kPa): 826.2 ± 7.6 kg/m3
mass density (393.15 K, 100 kPa): 777.2 ± 3.4 kg/m3
mass density (393.15 K, 1000 kPa): 778.7 ± 3.5 kg/m3
mass density (393.15 K, 2000 kPa): 780.3 ± 3.6 kg/m3
mass density (393.15 K, 2700 kPa): 781.4 ± 3.7 kg/m3
mass density (393.15 K, 3000 kPa): 781.9 ± 3.7 kg/m3
mass density (393.15 K, 5000 kPa): 784.9 ± 4 kg/m3
mass density (393.15 K, 10000 kPa): 791.9 ± 4.6 kg/m3
mass density (393.15 K, 15000 kPa): 798.4 ± 5.2 kg/m3
mass density (393.15 K, 20000 kPa): 803.9 ± 5.8 kg/m3
mass density (393.15 K, 25000 kPa): 809.7 ± 6.4 kg/m3
mass density (393.15 K, 30000 kPa): 815.7 ± 7 kg/m3
mass density (393.15 K, 35000 kPa): 822.2 ± 7.6 kg/m3
